# Source: PubChem BioAssay (NCI)
#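 Five concentrations, 48 hours, 96-well plates. GI50: concentration for 50% inhibition of growth. Definition used: TGI = concentration required for complete inhibition of growth.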
# What was measured:
# Assay in all cases: NCI tumour cell line growth inhibition, 48 h
# NCI-H23 lung = tested on: NCI-H23 lung
# OVCAR-3 ovarian = tested on: OVCAR-3 ovarian
# SK-MEL-5 melanoma = tested on: SK-MEL-5 melanoma
# SNB-19 CNS = tested on: SNB-19 CNS
# M14 melanoma = tested on: M14 melanoma
# TK-10 renal = tested on: TK-10 renal
# HT29 colon = tested on: HT29 colon
# CAKI-1 renal = tested on: CAKI-1 renal
# SK-OV-3 ovarian = tested on: SK-OV-3 ovarian
# OVCAR-5 ovarian = tested on: OVCAR-5 ovarian
# HL-60(TB) leukemia = tested on: HL-60(TB) leukemia
# NCI-H522 lung = tested on: NCI-H522 lung
Compound,TGI (NCI-H23 lung) [µM],TGI (OVCAR-3 ovarian) [µM],TGI (SK-MEL-5 melanoma) [µM],TGI (SNB-19 CNS) [µM],TGI (M14 melanoma) [µM],TGI (TK-10 renal) [µM],TGI (HT29 colon) [µM],TGI (CAKI-1 renal) [µM],TGI (SK-OV-3 ovarian) [µM],TGI (OVCAR-5 ovarian) [µM],TGI (HL-60(TB) leukemia) [µM],TGI (NCI-H522 lung) [µM],GI50 (OVCAR-5 ovarian) [µM],GI50 (NCI-H23 lung) [µM],GI50 (SK-MEL-5 melanoma) [µM],GI50 (SNB-19 CNS) [µM],GI50 (M14 melanoma) [µM],GI50 (CAKI-1 renal) [µM],GI50 (SK-OV-3 ovarian) [µM],GI50 (HL-60(TB) leukemia) [µM]
C=CCOC1OC(CS(=O)(=O)O)C(O)C(O)C1O (centres undefined),> 100,> 100,> 100,> 100,> 100,> 100,> 100,> 100,> 100,> 100,> 100,,,,,,,,,
Nc1ccc2nc3ccc(N)cc3[n+](-c3ccccc3)c2c1,> 100,> 100,96.4,> 100,> 100,> 100,> 100,> 100,> 100,80.9,> 100,> 100,,,,,,,,
O=c1[nH]/c(=C/c2ccc(OCc3ccccc3)cn2)c(=O)[nH]/c1=C/c1ccc(Cl)cc1,> 100,2.45,> 100,> 100,> 100,> 82.9,> 100,> 56.6,> 100,> 100,> 40.2,> 84.9,,,,,,,,
CCCCNc1c(CN)cnc2cc(Cl)ccc12,39.2,32.3,29.3,51,36.6,30.2,37,65.7,31.6,35.5,3.92,34.5,,,,,,,,
CCOC(=O)c1sc2nc(SC)nc3c2c1NCN3c1ccc2c(c1)OCCCO2,> 100,93.9,> 100,> 100,> 100,> 100,,> 100,75.7,> 100,> 100,> 100,,,,,,,,
O=C(N/N=C/c1ccc([N+](=O)[O-])cc1)c1cccc2nc3ccccc3nc12,> 100,> 100,> 100,> 100,> 100,> 69.2,> 100,> 100,> 100,> 100,> 100,> 100,,,,,,,,
C(=C\c1nccs1)/c1cccc(/C=C/c2nccs2)n1,> 50,> 50,> 50,> 50,> 50,> 50,> 50,> 50,> 50,> 50,> 50,> 50,,,,,,,,
Cc1ccc2cc3c(ccc4ccccc43)c3c2c1CC3,> 100,> 100,> 100,> 100,> 100,> 100,> 100,> 100,> 100,> 100,> 100,> 100,> 100,,,,,,,
CC(=O)OC1COC(n2nc(/C=C/c3ccc(Cl)cc3)c(=O)n(/N=C/c3ccccc3)c2=S)C(OC(C)=O)C1OC(C)=O (centres undefined),> 100,> 100,> 100,> 100,> 100,> 100,> 100,> 100,> 100,> 100,> 100,> 100,,,,,,,,
Cc1nc(Nc2ccc(F)cc2)c2sc(=S)n(-c3ccc(F)cc3)c2n1,16.9,30.9,27.7,27.8,15.5,27.5,19.9,35.5,40.2,36.3,74.1,30.1,,,,,,,,
COc1ccccc1N1C(Cl)C(=O)C1c1c[nH]c2ccccc12 (centres undefined),> 100,> 100,> 100,> 100,> 100,> 100,> 100,,> 100,> 100,> 100,> 100,,,,,,,,
COc1cccc(Nc2nc(-c3cccs3)nc3ccc(Br)cc23)c1,> 100,> 100,> 100,78.7,> 100,> 100,> 100,> 100,> 100,> 100,> 100,> 100,,,,,,,,
c1ccc(C(c2ccccc2)[P+](c2ccccc2)(c2ccccc2)c2ccccc2)cc1,5.05,3,1.15,10,,,6.73,8.47,2.68,13.3,4.05,1.14,,,,,,,,
CN(C)CCCNc1ncnc2nc[nH]c12,> 100,> 100,> 100,> 100,> 100,> 100,> 100,> 100,> 100,> 100,,> 100,,,,,,,,
COc1ccc2oc(=O)cc(C)c2c1,> 100,> 100,> 100,> 100,> 100,> 100,> 100,> 100,,> 100,> 100,> 100,,,,,,,,
Cc1cc(OCc2nn(CN3CCN(C)CC3)c(=S)n2/N=C/c2ccc(-c3ccc(Cl)cc3Cl)o2)ccc1Cl,> 100,> 100,> 100,,> 100,> 100,> 100,> 100,> 100,> 100,52.6,59,,,,,,,,
FC(F)(F)C(C1=NC(C(F)(F)F)(C(F)(F)F)N=C(N2CCOCC2)O1)C(F)(F)F,,> 100,28.4,> 100,60.5,83.6,57.8,61.6,> 100,46.4,22,46.2,,,,,,,,
COc1ccc(C2C3CCc4ccccc4C3=NN2S(=O)(=O)c2ccc(Cl)cc2)cc1 (centres undefined),> 100,> 100,> 100,> 100,> 100,> 100,63.3,> 100,16,> 100,74.9,37.6,,,,,,,,
O=C(O)C(O)Cc1ccccn1 (centres undefined),> 100,> 100,> 100,> 100,> 100,> 100,> 100,> 100,> 100,> 100,> 100,> 100,,,,,,,,
COc1cc(-c2c(C#N)c(N)c(C#N)c3c2COc2ccccc2-3)cc(OC)c1OC,> 60.8,> 83.8,> 100,> 43.5,> 100,40.3,> 100,> 100,32.4,> 100,> 100,> 100,,,,,,,,
O=C(c1ccccc1)[C@H]1Nc2ccc(Cl)cc2[C@H]2OCCC[C@@H]12,52,30.7,,90.3,31.9,64.6,35.3,63,,35.3,,36.8,,,,,,,,
C=CC(=O)N1CCN(c2nc(OC[C@@H]3CCCN3C)nc3c2CCN(c2cccc4cccc(C)c24)C3)C[C@@H]1CC#N,1.5,,3.06,2.99,3.57,,,2.46,3.17,3.26,,,1.58,< 0.01,1.68,1.59,1.82,1.18,1.68,
N=C(N)C(N=Nc1ccccc1)C(N)=O (centres undefined),> 100,> 100,> 100,> 100,> 100,> 100,> 100,> 100,> 100,> 100,> 100,> 100,,,,,,,,
CS/C(=N\C(=S)Nc1ccccc1)Nc1ccccc1,> 100,48,21.5,94.6,96.1,54.7,33.1,54.7,58.9,77.3,39.2,38,,,,,,,,
Nc1ccc(C2NC(=O)Cc3c2ccc2ccccc32)cc1 (centres undefined),> 100,> 100,> 100,> 100,> 100,> 100,> 100,> 100,> 100,> 100,> 100,> 100,,,,,,,,
NC(=O)NO,2050,2500,2230,> 2340,1950,> 2500,> 2440,1720,> 2500,1990,182,2270,,,,,,,,21
